Assay results from US5994363A (priority 1998, dated 1999).
Where “and” joins values, the source holds several entries; their conditions need not be identical. Identical values can stand only once. Counter-ions that a name gives are not always drawn.

Tests used:
[1] = Adverse events in escalating dose tolerance study in psychogenic male erectile dysfunction (Example 5); format: in vivo, human
Experimental: Example 5-Summary. This clinical study was conducted in three phases. In Phase 1 subjects were selected from among patients complaining of impotence by a thorough physiological and psychological assessment. For example, one step in the assessment process required candidates to undergo Rigiscan measurement of penile rigidity and circumference following administration of a placebo tablet in single blind fashion. Phase 2 consisted of a dose escalation (4, 6, and 8 mg tablets) administered on 4 visits. An out-patient phase was conducted as Phase 3. Patients were given apomorphine HCL tablets to use at home.
Example-5 Detailed Description (Clinical Study #94-03-01). The human study was conducted in three separate phases. Phase 1 consisted of selecting appropriate subjects and obtaining baseline information on sexual performance for each subject.
They were tested on four separate days at four separate doses (placebo and three active medication doses) with an interval of no less than six days between visits (i.e., one visit per week).
If the trial was aborted, the patient was given the choice of having Gravol 50 mg p.o. (an anti-emetic) administered at that time or enduring the adverse events as they arose. In either event, the patient was monitored by the research clinician until all side-effects had subsided. The patient was asked to return the following week for the next scheduled dose.
(§1) During the five-week, home-use phase, subjects were to attempt coitus at least once each week after taking a single APO tablet. After each attempt, the subject and their partner completed a Sexual Function questionnaire (See FIGS. 15 and 16) which was later evaluated and used for final statistical analysis.
The data was analyzed by an inspection of the reported adverse events, the given dose of apomorphine and the phase of the study, i.e., in-patient (dose escalating) or take-home (constant dose) phases.

[2] = Take-home sexual intercourse success rate (Example 5, Phase III); format: in vivo, human
From the text: as §1
For the third phase, subjects had recorded at baseline, their satisfaction,erection, number of attempts, and successful intercourse on a VAS scale (see Tables Xa-Xc, above). Evaluateable subjects first recorded a success rate, then completed VAS for erection results and satisfaction with intercourse following take-home treatment. The success rates, as shown in Tables XVa-XVb, below, were calculated for milligrams of APO as well as for micrograms per kilogram of the patient's body weight doses (males). There were four criteria for recording a success in the take-home phase. […] Several evaluations of the data were made including the male and female responses to treatments via questionnaires (see FIGS. 15 and 16).

For `CN1CCc2cccc3c2[C@H]1Cc1ccc(O)c(O)c1-3` [apomorphine HCl], the “Total Number of Adverse Events” value ([1]; Phase 2 (dose escalation), 4 mg/week) was 31, the “Total Number of Adverse Events” value ([1]; Phase 2 (dose escalation), 6 mg/week) was 58 and the “Total Number of Adverse Events” value ([1]; Phase 2 (dose escalation), 8 mg/week) was 50. The “Total Number of Adverse Events” value ([1]; Phase 3 (out-patient), 4 mg) was 15, the “Total Number of Adverse Events” value ([1]; Phase 3 (out-patient), 6 mg) was 13 and the “Total Number of Adverse Events” value ([1]; Phase 3 (out-patient), 8 mg) was 8. The “overall incidence of nausea” value ([1]; all administered doses) was “less than 13%”, the severe nausea cases ([1]; all doses) was “two” and the hypotension ([1]; also bradycardia, dizziness, syncope, pallor reported) was “reported as an adverse event in some subjects”. For the same molecule, the “Anti-Emetic In Patient, Total” value ([1]; in vivo) was 8, the “Anti-Emetic Take Home, Total” value ([1]; in vivo) was 2 and the “In-Patient A.E.'s, Total” value ([1]; in vivo) was 109. The “Take-Home A.E.'s, Total” value ([1]; in vivo) was 25, the “decrease in adverse events per tablet” value ([1]; in vivo) was ~95.6% and the “frequency of side effects” value ([1]; in vivo) was 94.2%. The incidence of vomiting ([1]; in vivo) was “less than 3%”, the “increased sweating and fatigue” value ([1]; in vivo) was “also reported” and the “severe hypotension and pallor” value ([1]; in vivo) was “Only single cases”. For the same molecule, the severe increased sweating ([1]; in vivo) was “One of the cases”, the “Sexual Intercourse Success Rate” value ([2]; Female, 6 mg, listed as APO) was 73.3% and 73% and the “Sexual Intercourse Success Rate” value ([2]; Female, 35-50 μg/kg) was 60.0%. For the same molecule, the “Sexual Intercourse Success Rate” value ([2]; Female, 50-74 μg/kg, listed as APO) was 82%, the “Sexual Intercourse Success Rate” value ([2]; Female, Overall) was 70.0% and the “Sexual Intercourse Success Rate” value ([2]; Male, 6 mg, listed as APO) was 73.3% and 73%. The “Sexual Intercourse Success Rate” value ([2]; Male, 35-50 μg/kg) was 80.0%, the “Sexual Intercourse Success Rate” value ([2]; Male, 50-74 μg/kg, listed as APO) was 73% and the “Sexual Intercourse Success Rate” value ([2]; Male, Overall) was 70.0%. The overall success rate ([2]; whole study, baseline rate 28%, listed as APO) was 70% and 72%.
